Experimental data published in patent US8871774B2, “Inhibitors of influenza viruses replication” (priority 2010, dated 2014).
Counter-ions that a name gives are not always drawn. Like-named read-outs stand apart in the source and are kept apart here.

Columns and labels:
[1] = system: influenza A virus (A/PR/8/34); assay: cytopathic effect (CPE) assay, MDCK cell protection by ATP detection; assay type: cell-based; conditions: mean IC50, MDCK cells, A/PR/8/34, 72 hours, 50% cell protection
[2] = system: Influenza virus, strain A/PR/8/34; assay: microbe, parasite or virus in culture; assay type: cell-based
[3] = Influenza A virus, Table 1, read-out: Flu, MDCK IC50
[4] = unidentified influenza virus, PR/8, read-out: bDNA EC50 (uM)
[5] = Table 1, read-out: Flu, MDCK IC50
[6] = Influenza A virus, Table 2, read-out: Flu MDCK IC50
[7] = read-out: bDNA EC50, Table 2, mean EC50, viral RNA level 50% of control wells

| Compound | IC50 [1, 3] [µM] | EC50 [2, 4] [µM] | IC50 [1, 6] [µM] | other results |
| --- | --- | --- | --- | --- |
| Cn1cnc(C(=O)N[C@@H]2CCC[C@H](Nc3nc(-c4n[nH]c5ncccc45)ncc3F)C2)c1 [Compound I-24, N-((1R,3S)-3-((5-fluoro-2-(1H-pyrazolo[3,4-b]pyridin-3-yl)pyrimidin-4-yl)amino)cyclohexyl)-1-methyl-1H-imidazole-4-carboxamide] | < 3.3 | < 3.3 |  |  |
| C[C@H]1CCN(C(=O)N[C@@H]2CCC[C@H](Nc3nc(-c4n[nH]c5ncccc45)ncc3F)C2)C1 [Compound I-25, (S)—N-((1R,3S)-3-((5-fluoro-2-(1H-pyrazolo[3,4-b]pyridin-3-yl)pyrimidin-4-yl)-amino)cyclohexyl)-3-methylpyrrolidine-1-carboxamide] | < 3.3 | < 3.3 |  |  |
| Cn1cncc1C(=O)N[C@@H]1CCC[C@H](Nc2nc(-c3n[nH]c4ncc(F)cc34)ncc2F)C1 [Compound I-27, N-((1R,3S)-3-((5-fluoro-2-(5-fluoro-1H-pyrazolo[3,4-b]pyridin-3-yl)pyrimidin-4-yl)amino)cyclohexyl)-1-methyl-tH-imidazole-5-carboxamide] |  |  |  | IC50 [1, 5]: < 3.3 µM; EC50 ([2]; Table 1, mean EC50, viral RNA level 50% of control wells, read-out: bDNA EC50): < 3.3 µM |
| O=C(O)[C@H]1C2CCC(CC2)[C@@H]1Nc1nc(-c2n[nH]c3ncc(F)cc23)ncc1F [Compound I-29] | < 3.3 | < 3.3 |  |  |
| O=C(O)[C@H]1C2CCC(CC2)[C@@H]1Nc1nc(-c2n[nH]c3ncc(F)cc23)ncc1F [Compound I-31, (2S,3S)-3-(5-fluoro-2-(5-fluoro-1H-pyrazolo[3,4-b]pyridin-3-yl)pyrimidin-4-ylamino)bicyclo[2.2.2]octane-2-carboxylic acid sodium salt] |  |  |  | IC50 [1, 5]: < 3.3 µM; EC50 ([2]; read-out: bDNA EC50, Table 1, mean EC50, viral RNA level 50% of control wells): < 3.3 µM |
| O=C(O)[C@H]1C2CCC(CC2)[C@@H]1Nc1nc(-c2n[nH]c3ncc(F)cc23)ncc1Cl [Compound I-34, (2S,3S)-3-((5-chloro-2-(5-fluoro-1H-pyrazolo[3,4-b]pyridin-3-yl)pyrimidin-4-yl)amino)bicyclo[2.2.2]octane-2-carboxylic acid] | < 3.3 | < 3.3 |  |  |
| O=C(O)[C@@H]1C2CCC(CC2)[C@H]1Nc1nc(-c2n[nH]c3ncc(F)cc23)ncc1Cl [Compound I-35, (2R,3R)-3-((5-chloro-2-(5-fluoro-1H-pyrazolo[3,4-b]pyridin-3-yl)pyrimidin-4-yl)amino)bicyclo[2.2.2]octane-2-carboxylic acid] | < 3.3 | < 3.3 |  |  |
| O=C(O)[C@@H]1CCCC2(CCCC2)[C@@H]1Nc1nc(-c2n[nH]c3ncc(F)cc23)ncc1F [Compound I-38] | < 3.3 | < 3.3 |  |  |
| O=C(O)[C@H]1CCCC2(CCCC2)[C@H]1Nc1nc(-c2n[nH]c3ncc(F)cc23)ncc1F [Compound I-39, (6S,7S)-6-((5-fluoro-2-(5-fluoro-1H-pyrazolo[3,4-b]pyridin-3-yl)pyrimidin-4-yl)amino)spiro[4.5]decane-7-carboxylic acid] |  | < 3.3 | < 3.3 |  |
| O=C(O)[C@@H]1CCCC2(CCCC2)[C@@H]1Nc1nc(-c2n[nH]c3ncc(F)cc23)ncc1F [Compound I-40, (6R,7R)-6-((5-fluoro-2-(5-fluoro-1H-pyrazolo[3,4-b]pyridin-3-yl)-pyrimidin-4-yl)amino)spiro[4.5]decane-7-carboxylic acid] |  |  | < 3.3 | EC50 [2, 7]: < 3.3 µM |
| O=C(N[C@@H]1CCC[C@H](Nc2nc(-c3n[nH]c4ncc(F)cc34)ncc2F)C1)c1ccsc1 [Compound I-41, N-((1R,3S)-3-((5-fluoro-2-(5-fluoro-1H-pyrazolo[3,4-b]pyridin-3-yl)pyrimidin-4-yl)amino)cyclohexyl)thiophene-3-carboxamide] |  | < 3.3 | < 3.3 |  |
| O=C(O)[C@H]1C2CCC(CC2)[C@@H]1Nc1nc(-c2n[nH]c3ncc(F)cc23)ncc1F [Compound I-44] |  |  | < 3.3 | EC50 [2, 7]: < 3.3 µM |
| O=C(O)[C@H]1CCCC2(CCCC2)[C@@H]1Nc1nc(-c2n[nH]c3ncc(F)cc23)ncc1F [Compound I-45] |  | < 3.3 | < 3.3 |  |
| O=C(O)[C@@H]1CCCC2(CCCC2)[C@H]1Nc1nc(-c2n[nH]c3ncc(F)cc23)ncc1F [Compound I-46] |  | > 3.3 | < 3.3 |  |
| O=C(N[C@@H]1CCC[C@H](Nc2nc(-c3n[nH]c4ncc(F)cc34)ncc2F)C1)c1csc(Cl)c1 [Compound I-47, 5-chloro-N-((1R,3S)-3-((5-fluoro-2-(5-fluoro-1H-pyrazolo[3,4-b]pyridin-3-yl)pyrimidin-4-yl)amino)cyclohexyl)thiophene-3-carboxamide] |  | < 3.3 | < 3.3 |  |
| O=C(O)C[C@H]1C2CCC(CC2)[C@@H]1Nc1nc(-c2n[nH]c3ncc(F)cc23)ncc1F [Compound I-48, 2-((2S,3S)-3-((5-fluoro-2-(5-fluoro-1H-pyrazolo[3,4-b]pyridin-3-yl)pyrimidin-4-yl)amino)bicyclo[2.2.2]octan-2-yl)acetic acid] |  | < 3.3 | < 3.3 |  |
